System: WT and Kvβ2−/− mice
Assay: Arterial blood pressure (femoral artery catheter) during norepinephrine infusion
Assay type: in vivo, mouse
Settings: norepinephrine infusion 5 μg/kg·min−1
Source text: In vivo measurements of cardiac function and myocardial blood flow: Mice were anesthetized with 3% isoflurane and supplemental O2, administered (1 L·min^−1) in a small induction chamber. After induction, the mice were placed on a controlled heating table in a supine position. Anesthesia was maintained throughout the procedure by delivery of 1-2% isoflurane and supplemental O2 (0.5 L·min^−1). The extremities were secured to the surgical table by tape and a lubricated probe was inserted rectally to monitor body temperature. The chest, neck, and hind limb hair were then removed using a depilatory agent, the skin was rinsed with warm water, and the neck area was disinfected with 70% ethanol/betadine and an incision (10-15 mm) was made at the right side of the neck. […]
Measurements of cardiac function, myocardial perfusion, and arterial blood pressure were performed at baseline, after administration of hexamethonium (5 mg·kg^−1, i.v.), and following successive doses of norepinephrine (0.5, 1.0, 2.5, and 5.0 μg·kg^−1·min^−1; 3 min duration each dose, followed by 3-5 min washout). […] Left ventricular volume at end diastole (LVEDV) and end systole (LVESV), as well left ventricular internal diameter at end diastole (LVID,d) and end systole (LVID,s) were measured at steady state after drug infusions. […]

Question: What does the source list for `NC[C@H](O)c1ccc(O)c(O)c1` [norepinephrine]?
Answer: time of infusion after which norepinephrine-induced elevation of pressure declined (Kvβ2−/− mice): ~40 s; increase in arterial blood pressure (WT animals): sustained for the duration of drug administration

Source: patent publication US20220226265A1, “METHODS OF CONTROLLING MYOCARDIAL BLOOD FLOW” (UNIVERSITY OF LOUISVILLE RESEARCH FOUNDATION, INC., priority 2021, published 2022)
